Reference: patent US20150315241A1, “Antibiotic Peptides” (priority 2007, published 2015)
Values after ≈ are worked out from the molar mass of the structure shown. Where a SMILES comes first, the peptide text is derived from it. Where no end group is shown, it is not given here. [ ]: non-standard residue; d: D form. The star is where a group is joined. Orn(α-tetramethylguanidino) = CN(C)C(=N[C@@H](CCCN)C(=O)*)N(C)C; hArg = N=C(N)NCCCC[C@H](N)C(=O)O; Orn = NCCC[C@H](N)C(=O)O

How the values were obtained:
[1] = test system: E. coli BL 21 AI; experiment: Growth inhibition assay (MIC); type: cell-based, Escherichia coli; settings: 1% TSB, 37° C., 20 hrs
Method in brief: (§1)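 Bacteria grown overnight in NB at 37° C. were adjusted to 5×10^6 CFU/mL in 1% TSB and mixed 1:1 with a two-fold peptide series (final 125 μg/mL–60 ng/mL). After 20 hrs at 37° C., A595 was read; triplicates.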

[2] = test system: K. pneumonia 681; type: cell-based, Klebsiella pneumoniae; settings: 20 h
Description: (§2) The minimal inhibition concentrations (MIC) of the apidaecin-derived peptides and peptide-derivatives were determined by a growth inhibition assay using a serial peptide dilution in sterilized round-bottom 96-well plates (polystyrene, U-bottom, Greiner Bio-One GmbH) with a final volume of 100 μL per well. The bacteria, e.g., E. coli BL21 A1, were grown in nutrient broth (NB, Carl Roth GmbH+Co. KG, Karlsruhe, Germany) at 37° C. over night. To each well of the 96-well plate, 50 μL of the overnight culture adjusted to 5×10^6 CFU/mL in 1% TSB were added. Lyophilized peptides and peptidomimetics were dissolved in 1% TSB (tryptic soy broth) or water to give a final concentration of 250 μg/mL. Fifty μL of the peptide or peptidomimetics solution were added to the first well of a row on the plate and mixed. Fifty μL of the first well containing the peptide solution were transferred to the second well, mixed and again 50 μL transferred to the next well and so on. Thereby, a two-fold dilution series was obtained starting at 250 μg/mL in the first well down to 120 ng/mL in the 12th well of a row giving a final peptide or peptidomimetics concentration from 125 μg/mL (well 1) to 60 ng/mL (well 12). Plates were incubated at 37° C. for 20 hrs. The absorbance was measured at 595 nm using a TECAN micro plate spectrophotometer (Tecan, Germany). All peptides and peptidomimetics were measured in triplicates. Sterilized water was used as a negative control.
(§3) The bacteria strains were tested: • Eschericha coli 1103, 10233, BL 21 AI, DC 2, • Klebsiella pneumoniae 681, • Micrococcus luteus ATCC 10240, • Mycobacterium vaccae • Bactillus subtillis 347.

[3] = test system: B. subtilis 347; type: cell-based, Bactillus subtillis; settings: 347, 20 h
Description: as §2, §3

[4] = in vitro; type: in vitro ADME, mouse; settings: 25% aqueous mouse serum, 37° C.; read-out: Half-life time
Description: Serum stability studies were carried out in duplicate as described by Hoffmann et al.. Briefly, 28 μL of an aqueous peptide or peptidomimetics solution (0.5 mg/mL) was added to 0.2 mL freshly pooled 25% mouse serum (Sigma-Aldrich GmbH, Taufkirchen, Germany) in water. The mixtures were incubated at 37° C. under gentle stirring. The proteins were precipitated with 40 μL of 15% aqueous TCA after incubation times of 0, 0.5, 1, 2, 4 and 6 h at 0° C. for 20 min before centrifuged (13500×G) at 4° C. for 5 min. The supernatants of all samples (240 μL) were neutralized with 1 mol/L aqueous NaOH and immediately stored at −20° C. The supernatants were analyzed by RP-HPLC using a linear acetonitrile gradient as described above with 0.1% TFA as ion pair reagent. Collected fractions of the main peaks were further analyzed by tandem mass spectrometry (MALDI-TOF/TOF-MS, 4700 Proteomics Analyzer, Applied Biosystems GmbH, Weiterstadt, Germany) in positive ion reflector mode using α-cyanohydroxycinnamic acid (50% CH3CN in 0.1% aqueous TFA) as matrix to identify the degradation products of the peptides and peptidomimetics, i.e., metabolites, at the different time points. Serum control samples consisted of 200 μL of pooled 25% mouse serum in water, which were also precipitated with 40 μL 15% aqueous TCA, as described before. Peptide reference samples consisted of 28 μL of the peptide stock solution diluted in 0.2 mL water and 40 μL of 15% aqueous trichloroacetic acid (TCA).

[5] = test system: E. coli 1103; type: cell-based, Escherichia coli; settings: 1103, 20 h
Description: as §2, §3

[6] = test system: M. luteus ATCC 10240; type: cell-based, Micrococcus luteus; settings: ATCC 10240, 20 h
Method in brief: as §1

[7] = test system: E. coli D31; type: cell-based, Escherichia coli; settings: D31, 20 h
Method in brief: (§4)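 Bacteria grown overnight in nutrient broth at 37° C were diluted to 5×10^6 CFU/mL in 1% TSB and exposed to peptides serially halved from 125 μg/mL to 60 ng/mL final. After 20 h at 37° C, A595 gave the MIC, measured in triplicate.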

[8] = test system: S. typhi S5; type: cell-based, Salmonella typhi; settings: S5, 20 h
Method in brief: as §4

[9] = test system: S. enterica subsp. Enterica serovar. typhi G10215 ATCC 700408; type: cell-based, Salmonella enterica; settings: ATCC 700408, 20 h
Method in brief: as §4

[10] = test system: K. Pneumonia 123132; experiment: Growth inhibition assay (MIC); type: cell-based, Klebsiella pneumoniae; settings: multidrug resistant strain; 1% TSB, 37° C., 20 hrs
Method in brief: as §4

[11] = test system: K. Pneumonia K6, ATCC 700603; experiment: Growth inhibition assay (MIC); type: cell-based, Klebsiella pneumoniae; settings: multidrug resistant strain; 1% TSB, 37° C., 20 hrs
Method in brief: as §4

[12] = test system: E. coli 45849; experiment: Growth inhibition assay (MIC); type: cell-based, Escherichia coli; settings: multidrug resistant strain; 1% TSB, 37° C., 20 hrs
Method in brief: as §4

| Molecule | MIC E. coli BL 21 AI [1] [µg/mL] | MIC K. pneumonia 681 [2] [µg/mL] | MIC B. subtilis 347 [3] [µg/mL] | half-life at 0.061 mg/mL [4] [h] | MIC E. coli 1103 [5] [µg/mL] | MIC M. luteus ATCC 10240 [6] [µg/mL] | half-life [4] [h] | MIC E. coli D31 [7] [µg/mL] | MIC S. typhi S5 [8] [µg/mL] | MIC S. enterica subsp. Enterica serovar. typhi G10215 ATCC 700408 [9] [µg/mL] | MIC K. Pneumonia 123132 [10] [µg/mL] | MIC K. Pneumonia K6, ATCC 700603 [11] [µg/mL] | MIC E. coli 45849 [12] [µg/mL] |
| --- | --- | --- | --- | --- | --- | --- | --- | --- | --- | --- | --- | --- | --- |
| CC[C@H](C)[C@H](NC(=O)[C@H](Cc1ccc(O)cc1)NC(=O)[C@@H](NC(=O)[C@@H]1CCCN1C(=O)[C@H](CCCNC(=N)N)NC(=O)[C@H](CC(N)=O)NC(=O)[C@H](CC(N)=O)NC(=O)[C@H](CCCN)NC(C)=O)C(C)C)C(=O)N1CCC[C@H]1C(=O)N[C@@H](CCCNC(=N)N)C(=O)N1CCC[C@H]1C(=O)N[C@@H](CCCNC(=N)N)C(=O)N1CCC[C@H]1C(=O)N1CCC[C@H]1C(=O)N[C@@H](Cc1c[nH]cn1)C(=O)N1CCC[C@H]1C(=O)N[C@@H](CCCCNC(=N)N)C(=O)N[C@@H](CC(C)C)C(N)=O [compound 131] (Ac-[Orn]NNRPVYIPRPRPPHP[hArg]L-NH2) | 4 (≈ 1.78 µM) | 16 (≈ 7.12 µM) | 32 (≈ 14.2 µM) | 2 | 16 (≈ 7.12 µM) | 0.5 (≈ 0.222 µM) | – | – | – | – | – | – | – |
| CC[C@H](C)[C@H](NC(=O)[C@H](Cc1ccc(O)cc1)NC(=O)[C@@H](NC(=O)[C@@H]1CCCN1C(=O)[C@H](CCCNC(=N)N)NC(=O)[C@H](CC(N)=O)NC(=O)[C@H](CC(N)=O)NC(=O)[C@H](CCCN)N=C(N(C)C)N(C)C)C(C)C)C(=O)N1CCC[C@H]1C(=O)N[C@@H](CCCNC(=N)N)C(=O)N1CCC[C@H]1C(=O)N[C@@H](CCCNC(=N)N)C(=O)N1CCC[C@H]1C(=O)N1CCC[C@H]1C(=O)N[C@@H](Cc1c[nH]cn1)C(=O)N1CCC[C@H]1C(=O)N[C@@H](CCCN)C(=O)N[C@@H](CC(C)C)C(N)=O [compound 134] ({Orn(α-tetramethylguanidino)}-NNRPVYIPRPRPPHP[Orn]L-NH2; N-terminus and C-terminus assumed) | – | 16 (≈ 7.12 µM) | >128 | – | 32 (≈ 14.2 µM) | 4 (≈ 1.78 µM) | > 6 | – | – | – | – | – | – |
| CC[C@H](C)[C@H](NC(=O)[C@H](Cc1ccc(O)cc1)NC(=O)[C@@H](NC(=O)[C@@H]1CCCN1C(=O)[C@H](CCCNC(=N)N)NC(=O)[C@H](CC(N)=O)NC(=O)[C@H](CC(N)=O)NC(=O)[C@H](CCCN)N=C(N(C)C)N(C)C)C(C)C)C(=O)N1CCC[C@H]1C(=O)N[C@@H](CCCNC(=N)N)C(=O)N1CCC[C@H]1C(=O)N[C@@H](CCCNC(=N)N)C(=O)N1CCC[C@H]1C(=O)N1CCC[C@H]1C(=O)N[C@@H](Cc1c[nH]cn1)C(=O)N1CCC[C@H]1C(=O)N[C@@H](CCCCNC(=N)N)C(=O)N[C@@H](CC(C)C)C(N)=O [compound 155] ({Orn(α-tetramethylguanidino)}-NNRPVYIPRPRPPHP[hArg]L-NH2) | 4 (≈ 1.74 µM) | 4 (≈ 1.74 µM) | 32 (≈ 13.9 µM) | – | 4 (≈ 1.74 µM) | 1 (≈ 0.434 µM) | > 6 | 4 (≈ 1.74 µM) | 4 (≈ 1.74 µM) | 0.5 (≈ 0.217 µM) | 2 (≈ 0.868 µM) | 4 (≈ 1.74 µM) | 4 (≈ 1.74 µM) |
| GNNRPVYIPQPRPPHPRL-NH2 [compound 6] | – | – | – | 0.25 | – | – | – | 1 | 0.125 | 0.125 | 16 | 16 | 0.5 |
